Assay results reported in article PMC3722296 (PLoS ONE, 2013).
Converted amounts (≈) assume the structure as drawn.

Key:
S. aureus S1 (MRSA) = format: cell-based, Staphylococcus aureus; settings: MIC = 100% growth inhibition; MHB pH 7.3, 5×10^5 CFU/mL, 24 h 37°C, A620 nm; mean of triplicate (n = 3)
Protocol: (§1) S1 was isolated from the blood of a patient and S2 was isolated from the sputum of a neonate. After isolation and identification, S. aureus strains were assessed for their susceptibility to various antibiotics, using the agar disc diffusion method. S1 was found Methicillin resistant (MRSA) and is also resistant to Amoxicillin, Oxacillin, Amikacin, Tobramycin, Fluoroquinolones, Erythromycin and Clindamycin. However, it was susceptible to Gentamicin, Synercid, Co-trimoxazole, Rifampicin, Fusidic acid, Vancomycin, Teicoplanin and Linezolid.
(§2) Different S. aureus strains described above were first pre-cultured aerobically at 37°C for 20 h in a Mueller-Hinton-Broth (MHB) medium, pH 7.3 (Difco Laboratories, Detroit, MI). Bacteria were suspended at absorbance of 0.001 at 620 nm in the MHB medium. […] Ten µl final volumes (10–200 µg/mL) of synthetic peptides (LL-37, bCAT, hCAT and bCTL) were incubated in microtitration plates with 90 µl of a mid-logarithmic phase culture of bacteria, with a starting absorbance of 0.001 at 620 nm. In the initial inoculi, bacteria were quantified by the agar plate spreading method which was 5×10^5 colony forming units (CFU)/mL. Tetracycline (10 mg/L) and Cefotaxime (0.1 mg/L) were used as positive controls. Microbial growth was assessed by the increase of absorbance after 24 h incubation at 37°C., [29] The A620 nm value of control cultures growing in the absence of peptide and antibiotics was defined as 100% growth. A620 nm zero with the antibiotics (Tetracycline and Cefotaxime) was taken as 100% inhibition. Absence of bacterial growth was verified by agar plate spreading. Each assay was performed in triplicates.
(§3) The MIC values (µg/mL) are reported as means of three independent experiments. To determine significance, between different peptides (rows) and bacterial strains (columns), one way ANOVA was used. Overall significance and correlation was evaluated by 4×4 factorial ANOVA for independent samples. Significance was accepted at p≤0.05.

S. aureus S2 (MSSA) = format: cell-based, Staphylococcus aureus; settings: MIC = 100% growth inhibition; MHB pH 7.3, 5×10^5 CFU/mL, 24 h 37°C, A620 nm; mean of triplicate (n = 3)
Protocol: as §1, §2, §3

S. aureus ATCC25923 = format: cell-based, Staphylococcus aureus; settings: MIC = 100% growth inhibition; MHB pH 7.3, 5×10^5 CFU/mL, 24 h 37°C, A620 nm; mean of triplicate (n = 3)
Protocol: as §2, §3

S. aureus ATCC49775 = format: cell-based, Staphylococcus aureus; settings: MIC = 100% growth inhibition; MHB pH 7.3, 5×10^5 CFU/mL, 24 h 37°C, A620 nm; mean of triplicate (n = 3)
Protocol: as §2, §3

[1] = system: S. aureus metallo-protease aureolysin; settings: cited from earlier work
Description: Staphylococcus aureus is the most frequently isolated pathogen in Gram-positive sepsis, often involved in blood clotting disorders and destruction of endocardial tissue. S. aureus has developed several mechanisms to avoid immune response including resistance to AMPs, [13] impairment of phagocyte recruitment, [14] escape from neutrophil extracellular traps, [15] interference with complement, [16] neutrophil lysis, resistance to oxidative burst and non-specific binding and degradation of immunoglobulins. The AMPs evasion mechanisms deployed by S. aureus include prote ...

## CC[C@H](C)[C@H](NC(=O)[C@H](CCCCN)NC(=O)[C@H](CCC(=O)O)NC(=O)[C@H](CCCCN)NC(=O)[C@H](CO)NC(=O)[C@H](CCCCN)NC(=O)[C@H](CCCNC(=N)N)NC(=O)[C@H](Cc1ccccc1)NC(=O)[C@H](Cc1ccccc1)NC(=O)[C@H](CC(=O)O)NC(=O)CNC(=O)[C@H](CC(C)C)NC(=O)[C@@H](N)CC(C)C)C(=O)NCC(=O)N[C@@H](CCCCN)C(=O)N[C@@H](CCC(=O)O)C(=O)N[C@@H](Cc1ccccc1)C(=O)N[C@@H](CCCCN)C(=O)N[C@@H](CCCNC(=N)N)C(=O)N[C@H](C(=O)N[C@H](C(=O)N[C@@H](CCC(N)=O)C(=O)N[C@@H](CCCNC(=N)N)C(=O)N[C@H](C(=O)N[C@@H](CCCCN)C(=O)N[C@@H](CC(=O)O)C(=O)N[C@@H](Cc1ccccc1)C(=O)N[C@@H](CC(C)C)C(=O)N[C@@H](CCCNC(=N)N)C(=O)N[C@@H](CC(N)=O)C(=O)N[C@@H](CC(C)C)C(=O)N[C@H](C(=O)N1CCC[C@H]1C(=O)N[C@@H](CCCNC(=N)N)C(=O)N[C@H](C(=O)N[C@@H](CCC(=O)O)C(=O)N[C@@H](CO)C(=O)O)[C@@H](C)O)C(C)C)[C@@H](C)CC)C(C)C)[C@@H](C)CC [LL-37, reference compound]
S. aureus S1 (MRSA)
  MIC: 30 µg/mL (≈ 6.68 µM)
S. aureus S2 (MSSA)
  MIC: 35 µg/mL (≈ 7.79 µM)
S. aureus ATCC25923
  MIC: 30 µg/mL (≈ 6.68 µM)
S. aureus ATCC49775
  MIC: 30 µg/mL (≈ 6.68 µM)
[1]
  cleavage by aureolysin: cleave and inactivate
